Experimental data reported in US9650365B2 (UNIVERSITY OF CONNECTICUT, priority 2014, dated 2017).
Like-named read-outs stand apart in the source and are kept apart here.

Columns and labels:
HUVEC = HUVEC proliferation (MTS); assay type: cell-based, human; details: Homo sapiens, HUVEC
Method in brief: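 HUVECs seeded at 3,000 cells/well, attached overnight, then treated with varying drug concentrations. Proliferation read by MTS/PMS after 72 h.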

BCRP = molecular target: T1, BCRP (Homo sapiens, UniProt Q9UNQ0); details: read-out: IC50 BCRP inhibition; cited from earlier work
T1 construct: expressed in transfected cells; host or cells: Madin Darby canine kidney cells (MDCK)
T1 sequence (Q9UNQ0 1-655): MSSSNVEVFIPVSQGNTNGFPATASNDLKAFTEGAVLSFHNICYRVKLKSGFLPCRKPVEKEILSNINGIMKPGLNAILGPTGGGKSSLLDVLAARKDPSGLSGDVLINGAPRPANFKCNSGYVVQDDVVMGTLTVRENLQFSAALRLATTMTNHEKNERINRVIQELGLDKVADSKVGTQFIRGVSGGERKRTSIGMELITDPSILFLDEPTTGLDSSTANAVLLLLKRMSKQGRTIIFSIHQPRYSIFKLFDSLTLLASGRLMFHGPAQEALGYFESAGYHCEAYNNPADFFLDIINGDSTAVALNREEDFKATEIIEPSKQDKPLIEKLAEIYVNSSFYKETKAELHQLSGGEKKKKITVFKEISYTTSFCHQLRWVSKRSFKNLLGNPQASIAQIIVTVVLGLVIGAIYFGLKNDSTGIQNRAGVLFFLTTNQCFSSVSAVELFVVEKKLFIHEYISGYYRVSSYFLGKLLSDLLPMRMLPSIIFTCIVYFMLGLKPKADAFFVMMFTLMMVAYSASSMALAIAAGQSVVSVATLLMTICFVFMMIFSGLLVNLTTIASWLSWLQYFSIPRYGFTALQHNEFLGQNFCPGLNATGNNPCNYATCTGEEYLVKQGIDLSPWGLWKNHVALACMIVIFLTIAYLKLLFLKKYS

angiogenesis = details: background; cited from earlier work

For `CCC(C)n1ncn(-c2ccc(N3CCN(c4ccc(OCC5COC(Cn6cncn6)(c6ccc(Cl)cc6Cl)O5)cc4)CC3)cc2)c1=O` (centres unmarked) [ITZ, itraconazole, reference compound], the GI50 (HUVEC; 72 h, read-out: GI50 (μM) HUVEC, 72 h) was 0.4 ± 0.03 µM, the GI50 (HUVEC; read-out: GI50 HUVEC proliferation) was 0.45 µM and the IC50 (HUVEC; read-out: HUVEC Anti-proliferation) was 450 ± 140 nM. The IC50 (BCRP) was roughly 1000 nM and the IC50 (angiogenesis) was 160 nM.
